Reference: ChEMBL document CHEMBL4152341, “Small Molecules Simultaneously Inhibiting p53-Murine Double Minute 2 (MDM2) Interaction and Histone Deacetylases (HDACs): Discovery of Novel Multitargeting Antitumor Agents” (J Med Chem, 2018)
Active and inactive are the calls of the source. The rule behind the calls is not given here.

Columns and labels:
[1] = system: NCI-H1299; assay: Antiproliferative activity against human NCI-H1299 cells after 72 hrs by CCK8 assay; type: functional, cell-based; conditions: NCI-H1299, 72 h
[2] = system: A549; assay: Antiproliferative activity against human A549 cells after 72 hrs by CCK8 assay; type: functional, cell-based; conditions: A549, 72 h
[3] = system: HCT-116; assay: Antiproliferative activity against human HCT116 cells after 72 hrs by CCK8 assay; type: functional, cell-based; conditions: HCT-116, 72 h
[4] = target: Histone deacetylase 1 (Homo sapiens, UniProt Q13547); assay: Inhibition of human recombinant full length HDAC1 using fluorogenic substrate 3 after 30 mins by fluorescence assay
Histone deacetylase 1, sequence (Q13547 whole entry): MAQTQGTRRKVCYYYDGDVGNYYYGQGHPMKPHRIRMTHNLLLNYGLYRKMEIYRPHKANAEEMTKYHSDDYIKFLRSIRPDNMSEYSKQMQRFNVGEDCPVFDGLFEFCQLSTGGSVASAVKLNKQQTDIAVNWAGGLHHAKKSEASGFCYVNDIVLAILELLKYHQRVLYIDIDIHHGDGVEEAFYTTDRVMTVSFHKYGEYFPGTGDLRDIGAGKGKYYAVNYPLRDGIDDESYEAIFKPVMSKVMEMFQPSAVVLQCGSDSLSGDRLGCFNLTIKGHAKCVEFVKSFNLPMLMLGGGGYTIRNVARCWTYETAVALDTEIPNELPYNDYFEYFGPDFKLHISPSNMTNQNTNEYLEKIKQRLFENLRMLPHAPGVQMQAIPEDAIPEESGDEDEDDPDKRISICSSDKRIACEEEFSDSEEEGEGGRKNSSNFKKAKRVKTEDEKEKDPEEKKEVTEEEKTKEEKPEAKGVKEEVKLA

[5] = system: MCF7; assay: cells; conditions: Homo sapiens, MCF7, 72 h
Description: Antiproliferative activity against human MCF7 cells after 72 hrs by CCK8 assay

[6] = target: E3 ubiquitin-protein ligase Mdm2 (Homo sapiens, UniProt Q00987); assay: Inhibition of MDM2 (unknown origin) preincubated for 30 mins by fluorescence polarization assay
E3 ubiquitin-protein ligase Mdm2, sequence (Q00987 whole entry): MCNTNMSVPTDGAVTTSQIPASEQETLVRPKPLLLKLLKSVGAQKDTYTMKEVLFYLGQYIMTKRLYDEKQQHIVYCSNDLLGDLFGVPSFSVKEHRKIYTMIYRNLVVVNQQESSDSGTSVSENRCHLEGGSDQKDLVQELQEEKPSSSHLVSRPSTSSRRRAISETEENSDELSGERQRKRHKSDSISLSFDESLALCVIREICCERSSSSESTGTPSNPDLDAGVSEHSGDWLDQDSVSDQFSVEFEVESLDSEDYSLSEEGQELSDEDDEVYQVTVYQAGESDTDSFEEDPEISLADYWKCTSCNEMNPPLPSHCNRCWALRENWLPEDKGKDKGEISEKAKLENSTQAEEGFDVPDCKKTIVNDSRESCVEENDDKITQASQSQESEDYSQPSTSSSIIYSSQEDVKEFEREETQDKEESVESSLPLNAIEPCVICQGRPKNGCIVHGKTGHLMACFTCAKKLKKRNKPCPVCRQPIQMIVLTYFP

[7] = target: T1, Tumour suppressor p53/oncoprotein Mdm2 (Homo sapiens) (UniProt P04637+Q00987); assay: Inhibition of MDM2/P53 interaction in human A549 cells assessed as increase in p53 expression at 10 uM after 12 hrs by Western blot analysis; type: cell-based
T1 sequence (P04637 whole entry, looked up): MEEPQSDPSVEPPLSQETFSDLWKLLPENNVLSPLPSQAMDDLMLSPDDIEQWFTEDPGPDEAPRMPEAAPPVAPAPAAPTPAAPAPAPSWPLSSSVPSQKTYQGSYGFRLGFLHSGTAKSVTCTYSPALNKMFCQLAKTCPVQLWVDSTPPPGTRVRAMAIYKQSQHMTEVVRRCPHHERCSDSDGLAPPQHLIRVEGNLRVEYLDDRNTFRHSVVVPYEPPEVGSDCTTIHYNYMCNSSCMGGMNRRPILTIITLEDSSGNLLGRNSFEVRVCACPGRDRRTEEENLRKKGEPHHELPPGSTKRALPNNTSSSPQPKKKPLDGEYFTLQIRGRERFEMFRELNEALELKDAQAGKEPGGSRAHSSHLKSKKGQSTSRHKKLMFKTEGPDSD
T1 sequence (Q00987 whole entry, looked up): as the sequence (Q00987 whole entry) above

[8] = target: T1, Tumour suppressor p53/oncoprotein Mdm2 (Homo sapiens); assay: Inhibition of MDM2/P53 interaction in human A549 cells assessed as increase in MDM2 expression at 5 to 10 uM after 12 hrs by Western blot analysis; type: cell-based
[9] = target: T1, Tumour suppressor p53/oncoprotein Mdm2 (Homo sapiens); assay: Inhibition of MDM2/P53 interaction in human A549 cells assessed as increase in p53 expression at 5 to 10 uM after 12 hrs by Western blot analysis; type: cell-based
[10] = system: A549; assay: cells; conditions: Homo sapiens, A549, 48 h, read-out: Activity
[11] = system: A549; assay: cells; conditions: Homo sapiens, A549, 48 h, read-out: Activity; remark: listed apart in the source
[12] = system: A549; assay: animal or person; type: functional, Homo sapiens; conditions: Mus musculus, A549, po, read-out: TGI

## CCOc1cc(C(C)(C)C)ccc1C1=NC(c2ccc(Cl)cc2)C(c2ccc(Cl)cc2)N1C(=O)N1CCC(C(=O)NO)CC1 (stereo not drawn)
[1]
  IC50: 9.87 µM
[2]
  IC50: 2.99 µM
[3]
  IC50: 9.3 µM
[4]
  IC50: 9.72 µM
[5]
  IC50: 10.1 µM
[6]
  Ki: 0.057 µM

## O=C(CCCCCCC(=O)Nc1ccccc1)NO [VORINOSTAT]
[1]
  IC50: 4.92 µM
[6]
  Ki: > 20 µM

## CCOc1cc(C(C)(C)C)ccc1C1=NC(c2ccc(Cl)cc2)C(c2ccc(Cl)cc2)N1C(=O)NCCCCCC(=O)Nc1ccccc1N (stereo not drawn)
[1]
  IC50: 19.1 µM
[2]
  IC50: 20.3 µM
[3]
  IC50: 21.8 µM
[4]
  IC50: > 20 µM
[5]
  IC50: > 100 µM
[6]
  Ki: 1.43 µM

## CCOc1cc(C(C)(C)C)ccc1C1=NC(c2ccc(Cl)cc2)C(c2ccc(Cl)cc2)N1C(=O)NCCCCCC(=O)NO (stereo not drawn)
[1]
  IC50: 10.4 µM
[2]
  IC50: 5.72 µM
[3]
  IC50: 7.15 µM
[4]
  IC50: 1.13 µM
[5]
  IC50: 10.6 µM
[6]
  Ki: 0.28 µM

## CCOc1cc(C(C)(C)C)ccc1C1=NC(c2ccc(Cl)cc2)C(c2ccc(Cl)cc2)N1C(=O)NCc1ccc(C(=O)NO)cc1 (stereo not drawn)
[1]
  IC50: 7.71 µM
[2]
  IC50: 7.64 µM
[3]
  IC50: 9.1 µM
[4]
  IC50: 3.7 µM
[5]
  IC50: 13.3 µM
[6]
  Ki: 0.58 µM

## CCOc1cc(C(C)(C)C)ccc1C1=NC(c2ccc(Cl)cc2)C(c2ccc(Cl)cc2)N1C(=O)N1CCN(Cc2ccc(C(=O)NO)cc2)CC1 (stereo not drawn)
[1]
  IC50: 3 µM
[2]
  IC50: 2.17 µM
[3]
  IC50: 2.03 µM
[4]
  IC50: 3.51 µM
[5]
  IC50: 3.97 µM
[6]
  Ki: 0.26 µM

## CCOc1cc(C(C)(C)C)ccc1C1=NC(c2ccc(Cl)cc2)C(c2ccc(Cl)cc2)N1C(=O)N1CCN(CCCCCC(=O)NO)CC1 (stereo not drawn)
[1]
  IC50: 9.39 µM
[2]
  IC50: 2.91 µM
[3]
  IC50: 4.03 µM
[4]
  IC50: 0.97 µM
[5]
  IC50: 7.26 µM
[6]
  Ki: 0.17 µM

## CCOc1cc(C(C)(C)C)ccc1C1=N[C@H](c2ccc(Cl)cc2)[C@H](c2ccc(Cl)cc2)N1C(=O)N1CCN(CCCCCCC(=O)NO)CC1
[2]
  IC50: 9.02 µM
[3]
  IC50: 10 µM
[7]
  Activity: Active
[4]
  IC50: 0.91 µM
[6]
  Ki: 10.9 µM

## CCOc1cc(C(C)(C)C)ccc1C1=NC(c2ccc(Cl)cc2)C(c2ccc(Cl)cc2)N1C(=O)N1CCN(CCCCC(=O)NO)CC1 (stereo not drawn)
[1]
  IC50: 12.9 µM
[2]
  IC50: 3.78 µM
[3]
  IC50: 5.21 µM
[4]
  IC50: 0.98 µM
[5]
  IC50: 9.8 µM
[6]
  Ki: 0.17 µM

## CCOc1cc(C(C)(C)C)ccc1C1=NC(c2ccc(Cl)cc2)C(c2ccc(Cl)cc2)N1C(=O)N1CCN(CCCCCCCC(=O)NO)CC1 (stereo not drawn)
[1]
  IC50: 7.76 µM
[2]
  IC50: 2.01 µM
[3]
  IC50: 1.71 µM
[4]
  IC50: 0.41 µM
[5]
  IC50: 4.83 µM
[6]
  Ki: 0.29 µM

## CC(=O)Nc1ccc(C(=O)Nc2ccccc2N)cc1 [TACEDINALINE]
[1]
  IC50: 6.79 µM
[2]
  IC50: 10.2 µM
[3]
  IC50: 9.83 µM
[5]
  IC50: 13.2 µM

## CCOc1cc(C(C)(C)C)ccc1C1=NC(c2ccc(Cl)cc2)C(c2ccc(Cl)cc2)N1C(=O)NCCCCC(=O)NO (stereo not drawn)
[1]
  IC50: 16.2 µM
[2]
  IC50: 9.34 µM
[3]
  IC50: 10.7 µM
[4]
  IC50: 2.92 µM
[5]
  IC50: 12.8 µM
[6]
  Ki: 0.33 µM

## CCOc1cc(C(C)(C)C)ccc1C1=NC(c2ccc(Cl)cc2)C(c2ccc(Cl)cc2)N1C(=O)NCCCCCCC(=O)NO (stereo not drawn)
[1]
  IC50: 7.65 µM
[2]
  IC50: 5.97 µM
[3]
  IC50: 7.09 µM
[4]
  IC50: 0.89 µM
[5]
  IC50: 7.23 µM
[6]
  Ki: 0.32 µM

## CCOc1cc(C(C)(C)C)ccc1C1=NC(c2ccc(Cl)cc2)C(c2ccc(Cl)cc2)N1C(=O)N1CCC(C(=O)Nc2ccc(/C=C/C(=O)NO)cc2)CC1 (stereo not drawn)
[1]
  IC50: 9.36 µM
[2]
  IC50: 7.59 µM
[3]
  IC50: 9.64 µM
[4]
  IC50: 0.97 µM
[5]
  IC50: 7.22 µM
[6]
  Ki: 2.65 µM

## CCOc1cc(C(C)(C)C)ccc1C1=NC(c2ccc(Cl)cc2)C(c2ccc(Cl)cc2)N1C(=O)N1CCC(Nc2ncc(C(=O)NO)cn2)CC1 (stereo not drawn)
[1]
  IC50: 7.91 µM
[2]
  IC50: 3.11 µM
[3]
  IC50: 3.24 µM
[4]
  IC50: 1.01 µM
[5]
  IC50: 2.68 µM
[6]
  Ki: 0.46 µM

## CCOc1cc(C(C)(C)C)ccc1C1=NC(c2ccc(Cl)cc2)C(c2ccc(Cl)cc2)N1C(=O)N1CCN(c2ncc(C(=O)NO)cn2)CC1 (stereo not drawn)
[1]
  IC50: 5.45 µM
[2]
  IC50: 1.97 µM
[3]
  IC50: 0.98 µM
[4]
  IC50: 0.31 µM
[5]
  IC50: 3.46 µM
[6]
  Ki: 1.05 µM

## CCOc1cc(C(C)(C)C)ccc1C1=NC(c2ccc(Cl)cc2)C(c2ccc(Cl)cc2)N1C(=O)NCCCCCCC(=O)Nc1ccccc1N (stereo not drawn)
[1]
  IC50: 17.5 µM
[2]
  IC50: 16 µM
[3]
  IC50: 10.1 µM
[4]
  IC50: 6.07 µM
[5]
  IC50: > 100 µM
[6]
  Ki: 0.62 µM

## CCOc1cc(C(C)(C)C)ccc1C1=N[C@@H](c2ccc(Cl)cc2)[C@@H](c2ccc(Cl)cc2)N1C(=O)N1CCN(CCCCCCC(=O)NO)CC1
[2]
  IC50: 0.99 µM
[3]
  IC50: 1.11 µM
[8]
  inhibition: Active
[4]
  IC50: 0.89 µM
[9]
  inhibition: Active
[6]
  Ki: 0.06 µM

## CCOc1cc(C(C)(C)C)ccc1C1=NC(c2ccc(Cl)cc2)C(c2ccc(Cl)cc2)N1C(=O)NCCCCC(=O)Nc1ccccc1N (stereo not drawn)
[1]
  IC50: 15.6 µM
[2]
  IC50: 18.4 µM
[3]
  IC50: 13.9 µM
[4]
  IC50: > 20 µM
[5]
  IC50: 29.1 µM
[6]
  Ki: 0.96 µM

## CCOc1cc(C(C)(C)C)ccc1C1=NC(c2ccc(Cl)cc2)C(c2ccc(Cl)cc2)N1C(=O)NCCCCCCCC(=O)Nc1ccccc1N (stereo not drawn)
[1]
  IC50: 19.6 µM
[2]
  IC50: 15.2 µM
[3]
  IC50: 9.91 µM
[4]
  IC50: 3.59 µM
[5]
  IC50: 20.3 µM
[6]
  Ki: 1.02 µM

## COc1ccc(C2=N[C@@H](c3ccc(Cl)cc3)[C@@H](c3ccc(Cl)cc3)N2C(=O)N2CCNC(=O)C2)c(OC(C)C)c1 [NUTLIN-3]
[1]
  IC50: 19.8 µM
[2]
  IC50: 9.58 to 11.7 µM
[10]
  viability at 5 µM: 83.3%
[3]
  IC50: 9.07 to 9.97 µM
[11]
  viability at 1 µM: 89.8%
[4]
  IC50: > 100 µM
[5]
  IC50: 8.5 µM
[12]
  inhibition in vivo at 100 mg/kg: 44%

## CCOc1cc(C(C)(C)C)ccc1C1=NC(c2ccc(Cl)cc2)C(c2ccc(Cl)cc2)N1C(=O)N1CCN(CC(=O)NO)CC1 (stereo not drawn)
[1]
  IC50: 11.5 µM
[2]
  IC50: 4.32 µM
[3]
  IC50: 5.88 µM
[4]
  IC50: 4.2 µM
[5]
  IC50: 11.7 µM
[6]
  Ki: 0.07 µM

## CCOc1cc(C(C)(C)C)ccc1C1=NC(c2ccc(Cl)cc2)C(c2ccc(Cl)cc2)N1C(=O)NCCCCCCCC(=O)NO (stereo not drawn)
[1]
  IC50: 9.06 µM
[2]
  IC50: 4.85 µM
[3]
  IC50: 5.03 µM
[4]
  IC50: 0.27 µM
[5]
  IC50: 7.92 µM
[6]
  Ki: 0.34 µM
